In patent US20020133846A1, “Method for protecting plants” (priority 1996, published 2002):
Like-named read-outs stand apart in the source and are kept apart here.

How the values were obtained:
Erysiphe graminis = test: Action against Erysiphe graminis in wheat, field trials
Method: In field trials (10 m^2), winter wheat in the growth phase was sprayed with a spray mixture prepared with a wettable powder of the active ingredient. Infection was naturally. 10 days post-infection, the fungus infestation was assessed.

Puccinia recondita = test: Action against Puccinia recondita in wheat; conditions: Table 19, comp. II alone 5 mg a.i. per liter
Method: 7-day-old wheat plants were sprayed to drip point with a spray mixture prepared from a formulated active ingredient, or combination of active ingredients. After 4 days, the treated plants were infected with a conidia suspension of the fungus, and the treated plants were subsequently incubated for 2 days at a relative atmospheric humidity of 90-100% and 20 C. 10 days post-infection, the fungus infestation was assessed.

Mycosphaerella fijiensis = test: Action against Mycosphaerella fijiensis in bananas; conditions: Table 23, comp. II alone 50 g a.i. per ha
Method: 40 banana plants in a 300 m^2 plot were sprayed at 17-19 day intervals with a spray mixture prepared with the wettable powder of the active ingredient; in total 6 times. Infection was naturally. For evaluation, the leaf infested with the fungus was measured.

Alternaria solani = test: Action against Alternaria solani in tomatoes in the open
Method: Tomato plants on a 7 m^2 plot were sprayed at 7-day intervals with a spray mixture prepared wettable powder of the active ingredient; in total 9 times. Infection was naturally. For ion, the leaf infested with the fungus was measured.

Cercospora sp. = test: Action against Cercospora sp. (leaf spot) on chili, field; format: in vivo; conditions: Table 17, leaves after sixth spraying, comp. II alone 100 ppm
[1] = Action on crop yield of chili, field; format: in vivo; conditions: in vivo
Colletotrichum sp. = test: Action against Colletotrichum sp. (anthracnose) on chili, field; format: in vivo; conditions: Table 16, chili fruits after fifth spraying, comp. II alone 100 ppm
From the text: Effects on crop yield: In a plot of land about 10 m^2 (test location: Cikampek, Java, Indonesia), chili plants were sprayed a total of 7 times at intervals of about 7 days with 500-700 liters of spray mixture per hectare. Three days after the first spraying, the plants were infected artificially with the fungus.

[2] = test system: Pseudoperonospora cubensis; test: Action against Pseudoperonospora cubensis in cucumbers; format: in vivo
[3] = test system: Peronospora parasitica Emwa; test: Action against Peronospora parasitica Emwa in Arabidopsis thaliana (Ws), rRNA fungal probe; format: in vivo; conditions: Hyaloperonospora parasitica, in Arabidopsis thaliana, Table 30, Ws, read-out: Fungal Growth Inhibition % O (observed)
[4] = test system: Peronospora parasitica NoCo2; test: whole plant or invertebrate; format: in vivo; conditions: Hyaloperonospora parasitica, in Arabidopsis thaliana, read-out: Fungal Growth Inhibition % O (observed), Table 33, wt Col-0, metalaxyl 12.5 mg/l
[5] = test system: Peronospora parasitica NoCo2; test: Action against Peronospora parasitica NoCo2 in Arabidopsis thaliana (Col-0), rRNA fungal probe; format: in vivo; conditions: Table 29, Col-0, metalaxyl alone 0.1 mg/l
Phytophthora infestans = format: in vivo
[6] = test system: Peronospora parasitica isolate Emwa; test: Action against Peronospora parasitica in Arabidopsis overexpressing NIM1 (lines 6E, 7C) and wild-type Ws; format: in vivo; conditions: Hyaloperonospora parasitica, in Arabidopsis thaliana, Table 36, wt Ws, read-out: Fungal Growth Inhibition % O (observed)
From the text: The plant lines used in this example (6E and 7C) were generated from transformation of wild-type Arabidopsis thaliana plants (ecotype Ws) with the BamHI-HindIII NIM1 genomic fragment (SEQ ID NO:1—bases 1249-5655), as described above in Example 21. The fungicides metalaxyl, fosetyl, and copper hydroxide, formulated as 25%, 80%, and 70% active ingredient (ai), respectively, with a wettable powder carrier, were applied as fine mist to leaves of three week-old transgenic Ws plants constitutively expressing the NIM1 gene. The wettable powder alone was applied as a control. Three days later, plants were inoculated with a Peronospora parasitica isolate Emwa conidial suspension (1-2×10^5 spores/ml), as described in Delaney et al. (1995). Following inoculation, plants were covered to maintain high humidity and were placed in a Percival growth chamber at 17° C. with a 14-hr day/10-hr night cycle (Uknes et al., 1993). Tissue was harvested 8 days after inoculation.
Fungal infection progression was followed for 12 days by viewing under a dissecting microscope to score development of conidiophores (Delaney, et al. (1994); Dietrich, et al. (1994)). Lactophenoltrypan blue staining of individual leaves was carried out to observe fungal growth within leaf tissue. Fungal growth was quantified using a rRNA fungal probe obtained by PCR according to White et al. (1990; PCR Protocols: A guide to Methods and Application, 315-322) using primers NS1 and NS2 and P. parasitica EmWa DNA as templates. RNA was purified from frozen tissue by phenol/chloroform extraction following lithium chloride precipitation (Lagrimini et al, 1987: PNAS, 84: 7542-7546). Samples (7.5 μg) were separated by electrophoresis through formaldehyde agarose gels and blotted to nylon membranes (Hybond-N+, Amersham) as described by Ausbel et al. (1987). Hybridizations and washing were according to Church and Gilbert (1984, PNAS, 81: 1991-1995). Relative amounts of the transcript were determined using a Phosphor Imager (Molecular Dynamics, Sunnyvale, Calif.) following manufacturers instructions. Sample loading was normalized by probing stripped filter blots with the constitutively expressed b-tubulin Arabidopsis cDNA.

CCCC1COC(Cn2cncn2)(c2ccc(Cl)cc2Cl)O1 (stereo not drawn) [propiconazole, 1-[2-(2,4-dichlorophenyl)-4-propyl-1,3-dioxolan-2-ylmethyl]-1H-1,2,4-triazole]
% action O (observed) (Erysiphe graminis; Table 21, comp. II alone 50 g a.i. per ha): 2%
% action O (observed) (Erysiphe graminis; Table 21, comp. II alone 100 g a.i. per ha): 31%
% action O (observed) (Puccinia recondita): 10%
% action O (observed) (Mycosphaerella fijiensis): 26%

Cc1cc(C2CC2)nc(Nc2ccccc2)n1 [cyprodinil, 4-cyclopropyl-6-methyl-N-phenyl-2-pyrimidinamine]
% action O (observed) (Erysiphe graminis; Table 22, comp. II alone 50 g a.i. per ha): 2%
% action O (observed) (Erysiphe graminis; Table 22, comp. II alone 100 g a.i. per ha): 31%
% action O (observed) (Alternaria solani; Table 24, comp. II alone 12.5 g a.i. per ha): 30%
% action O (observed) (Alternaria solani; Table 24, comp. II alone 25 g a.i. per ha): 51%

manganese ethylenebis(dithiocarbamate)polymer-zinc complex [mancozeb]
% action O (observed) (Cercospora sp.): 8%
Crop yield in kg per hectare O (observed) [1]: 8 kg per hectare
% action O (observed) (Colletotrichum sp.): 12%

COCC(=O)N(c1c(C)cccc1C)C(C)C(=O)OC (racemic) [metalaxyl]
% action O (observed) ([2]; Table 27, comp. II alone 0.5 mg a.i. per liter): 31%
% action O (observed) ([2]; Table 27, comp. II alone 5 mg a.i. per liter): 66%
% action O (observed) ([2]; Table 27, comp. II alone 50 mg a.i. per liter): 91%
inhibition at 0.1 µg/mL ([3]; metalaxyl alone 0.1 mg/l): 50%
inhibition at 0.5 µg/mL ([3]; metalaxyl alone 0.5 mg/l): 50%
inhibition at 2.5 µg/mL ([3]; metalaxyl alone 2.5 mg/l): 75%
inhibition at 12.5 µg/mL [4]: 52.7%
inhibition at 0.1 µg/mL ([5]; Hyaloperonospora parasitica, in Arabidopsis thaliana, read-out: Fungal Growth Inhibition % O (observed)): 0%
Fungal Growth Inhibition % O (observed) [5]: no fungal growth inhibition
% action O (observed) (Phytophthora infestans; Table 25, comp. II alone 0.1 mg a.i. per liter): 13%
% action O (observed) (Phytophthora infestans; Table 25, comp. II alone 1 mg a.i. per liter): 23%
% action O (observed) (Phytophthora infestans; Table 25, comp. II alone 10 mg a.i. per liter): 35%
% action O (observed) (Phytophthora infestans; Table 25, comp. II alone 50 mg a.i. per liter): 68%
% action O (observed) (Phytophthora infestans; Table 26, comp. II alone 1 mg a.i. per liter): 13%
% action O (observed) (Phytophthora infestans; Table 26, comp. II alone 10 mg a.i. per liter): 33%
% action O (observed) (Phytophthora infestans; Table 26, comp. II alone 50 mg a.i. per liter): 63%
% action O (observed) (Phytophthora infestans; Table 26, comp. II alone 100 mg a.i. per liter): 83%
inhibition at 1.2 µg/mL ([6]; metalaxyl 0.0012 g/l): 27%
inhibition at 12.5 µg/mL ([6]; metalaxyl 0.0125 g/l): 59%
